# Results reported in article PMC10021052, “Novel multivalent S100A8 inhibitory peptides attenuate tumor progression and metastasis by inhibiting the TLR4-dependent pathway” (Cancer Gene Therapy, 2023).
# “Also recorded” adds a separate entry of the source.
# What was measured:
# [1] = system: S100A8-TLR4/MD-2 complex; experiment: Competitive inhibition of S100A8-TLR4/MD-2 binding (ELISA, S100A8 immobilized; also immunoprecipitation); parameters: species or system human; settings: ELISA, peptide3A5 vs peptide #3 (Fig. 3B); divalent vs monomer (Fig. 4A)
# Protocol: (§1) S100A8 recombinant protein was purified as previously described. These proteins were immobilized on Maxisorp plates (Thermo Fisher Scientific, Waltham, MA, USA), followed by blocking with protein-free blocking buffer (Thermo Fisher Scientific). TLR4/MD-2 recombinant proteins with various concentrations of candidate peptides were then added to the indicated S100A8-immobilized ELISA plates for 2 h. The plates were washed, incubated with anti-TLR4 antibody, and HRP-conjugated secondary antibody, followed by the addition of substrate. The reaction was stopped by addition a 2N H2SO4 solution. Absorbance OD450/OD650 was measured using a microplate reader (Thermo Fisher Scientific). Maxisorp plates were also used for peptide coating. After blocking with protein-free blocking buffer, the coated plates were washed, and TLR4/MD-2 recombinant protein (2 µg/ml) was added to each well. The plates were incubated with a TLR4 antibody followed by horseradish peroxidase (HRP)-labeled anti-rabbit IgG. For detection of IL8 and VEGF in culture supernatants, SW480 cells were pretreated with the indicated peptides, and followed by stimulation with S100A8 for 24 h. The amount of interleukin-8 (IL-8) or VEGF in the supernatants were analyzed by ELISA kits (R&D Systems, Mineapolis, MN) according to the manufacturer’s instructions.
# Fig. 2 Identification of S100A8 binding sites to human TLR4/MD-2. […] TLR4/MD-2 recombinant proteins were immobilized to the ELISA plate. After blocking, a full length or deletion mutant of S100A8 was added to the plate. The more detailed methods are described in Materials and Methods. […] B A series of overlapping S100A8 synthetic peptides. The TLR4/MD-2 recombinant proteins were added to each well of peptide immobilized plates. The affinity to TLR4/MD-2 was determined. Data are shown as mean ± SD. C The competitive activity was determined using ELISA. Data are shown as mean ± SD. D The TLR4/MD-2 was mixed with S100A8 with/without the indicated peptides, and immunoprecipitated using an anti-TLR4 antibody. TLR4 or S100A8 was visualized. Similar results were obtained in three independent experiments. […] Total RNAs from SW480 cells with/without treatment of the peptide candidates were extracted and qPCR analysis was performed using relevant primer sets and SYBR green. Relative expression levels were compared. […] TEXT PRINTED IN THE PICTURE: (A) Full length: TLR4/MD-2 binding: + | (A) S100A8-ΔC: TLR4/MD-2 binding: − | (A) S100A8-N: TLR4/MD-2 binding: −
# Fig. 4 Improvement of competitive inhibition activity by divalent peptide3A5. A The binding capacity was measured at the indicated concentration using an ELISA-based assay. Similar results were obtained in three independent experiments. B SW480 cells were pretreated with 2.5 µM of divalent peptide3A5, and then stimulated with human S100A8 recombinant protein. After 30 min, cell lysates were subjected to western blotting using the indicated antibody. The divalent peptide#3 or peptide3A5 reduced the expression of S100A8-mediated IL-8 (C) and VEGF (D) induction. Total RNAs from SW480 cells with/without treatment of the peptide candidates were extracted and qPCR analysis was performed using relevant primer sets and SYBR green. Relative expression levels were compared. Peptide #3 suppresses S100A8-mediated IL-8(E) and VEGF (F) secretion in SW480 cells.
# [2] = system: SW480 cells; experiment: ELISA, IL-8 and VEGF secretion of SW480 cells; type: cell-based, human; settings: peptide pretreatment, S100A8 24 h, supernatant ELISA; *P < 0.05 vs S100A8
# Protocol: as §1
# [3] = system: Balb nu/nu mice; experiment: Toxicity: biochemical, body weight and hematological tests; type: in vivo, mouse; settings: Supplementary Table 1
# Source text: We then examined the effect of divalent peptide3A5 on tumor growth in vivo.
# [4] = system: C57BL6 mice; experiment: Toxicity in C57BL6 mice; type: in vivo, mouse; settings: Supplementary Table 1
# Source text: (§2) Because S100A8 inhibitory peptides target S100A8-TLR4/MD-2, which plays a role in innate immunity, the complete functional activities of S100A8 inhibitory peptides are expected to be observed in immunocompetent models. To date, syngeneic models are one of the only options to test physiological interactions between tumors and immune cells. […] LLC cells were identified as non-responders to anti-PD-1/programmed death-ligand 1 (PD-L1) therapy. […] We then examined the effect of divalent peptide3A5 in mouse MC38 colorectal cancer cells used as anti-PD-1 responder cells. We previously confirmed that MC38 endogenously expressed TLR4/MD-2 [8].
# [5] = system: MDSCs; experiment: MDSCs in LLC tumor-bearing mice; type: in vivo, C57BL/6J mice; settings: peripheral blood of LLC-tumor-bearing mice; *P < 0.05 vs control
# [6] = system: MC38 colorectal cancer cells; experiment: Tumor suppression in MC38 model; type: in vivo, mouse; settings: with anti-PD-1 antibody, Supplementary Fig. 3B
# Source text: as §2
sequence,measurement,setting,value
"FQEFAILVIK [Divalent peptide3A5, divalent peptide of peptide3A5 using Fmoc-Lys (Fmoc)-OH to form two branches]","competitive inhibition, potency compared with parent",[1],observed at a lower dose range than the effect of the peptide3A5 monomer
same,S100A8-mediated IL-8 secretion,[2],suppressed
same,S100A8-mediated VEGF secretion,[2],suppressed
same,serum ALT,[3]; 10 mg/kg,normal
same,serum AST,[3]; 10 mg/kg,normal
same,serum LDH,[3]; 10 mg/kg,normal
same,body weight,[3],no significant difference
same,hematological test,[3],no significant difference
same,toxicity in C57BL6 mice,[4],did not display any toxicity
same,MDSC cell number,[5],reduced the cell population of MDSCs; also recorded: reduces cell number of MDSCs in peripheral blood
same,"MC38 tumor suppression, combination with anti-PD-1",[6],significantly improved the efficacy of anti-PD-1 therapy; also recorded: increased the efficacy of anti-PD-1 therapy
